According to patent publication US9957271B2, “Substituted bicyclic aza-heterocycles and analogues as sirtuin modulators” (GlaxoSmithKline, LLC, priority 2012, dated 2018):
Read-outs that look alike come from different tables or passages of the source.

Target: T1, SIRT1 (Homo sapiens, UniProt Q96EB6)
T1 sequence (Q96EB6 1-747): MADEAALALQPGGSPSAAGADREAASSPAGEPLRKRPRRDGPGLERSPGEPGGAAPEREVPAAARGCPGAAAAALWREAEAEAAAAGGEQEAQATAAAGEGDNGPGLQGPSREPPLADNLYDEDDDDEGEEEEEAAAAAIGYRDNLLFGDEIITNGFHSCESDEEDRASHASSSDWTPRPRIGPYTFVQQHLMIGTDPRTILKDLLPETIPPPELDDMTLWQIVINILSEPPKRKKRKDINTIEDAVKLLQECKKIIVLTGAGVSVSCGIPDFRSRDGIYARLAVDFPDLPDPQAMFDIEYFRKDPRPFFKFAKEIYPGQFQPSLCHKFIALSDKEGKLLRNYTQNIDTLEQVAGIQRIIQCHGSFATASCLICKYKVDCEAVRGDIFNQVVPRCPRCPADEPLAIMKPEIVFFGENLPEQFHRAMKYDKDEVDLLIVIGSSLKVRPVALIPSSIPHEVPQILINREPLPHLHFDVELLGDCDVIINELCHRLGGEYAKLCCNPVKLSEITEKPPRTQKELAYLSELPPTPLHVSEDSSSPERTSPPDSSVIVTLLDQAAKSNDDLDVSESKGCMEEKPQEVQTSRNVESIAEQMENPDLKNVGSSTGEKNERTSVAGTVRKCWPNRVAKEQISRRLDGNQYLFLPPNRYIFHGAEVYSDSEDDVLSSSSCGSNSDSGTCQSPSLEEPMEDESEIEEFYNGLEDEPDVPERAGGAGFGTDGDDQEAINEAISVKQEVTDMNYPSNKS
Experiment: TAMRA based mass spectrometry assay of SIRT1 activity
Assay type: biochemical
Conditions: for Emax: read-out: TAMRA % Fold Act
In short: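 Deacetylation of a biotinylated, TAMRA-tagged p53-based peptide (0.5 μM) by 10 nM His-tagged SIRT1 with 120 μM βNAD+, 25 °C for 25 min, pH 8 Tris-acetate buffer, across a compound concentration range. Quenched by formic acid and read by mass spec as product peptide or OAADPR; activity relative to DMSO reactions, nicotinamide defining maximal inhibition.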

[1] = TAMRA assay, concentration giving 150% activation of SIRT1
[2] = TAMRA assay, percent maximum fold activation
[3] = TAMRA peptide substrate, concentration giving 150% activation of SIRT1
[4] = TAMRA peptide substrate, percent maximum fold activation
[5] = concentration of test compound giving 150% activation of SIRT1, TAMRA peptide substrate
[6] = percent maximum fold activation of SIRT1, TAMRA peptide substrate

Row | SMILES | TAMRA EC1.5 (μM) [1] | Emax [2] [%] | also measured
1 | Cc1cc(C)nc(C(=O)Nc2cnc3c(C)c(C)c(-c4ccccc4Cl)nn23)n1 [Compound 388] | A (EC1.5<1 μM) | ≥ 350 | 
2 | Cc1nc2c(C)cc(-c3ccccc3OC(F)(F)F)nn2c1C(=O)Nc1cccnn1 [Compound 479] |  |  | TAMRA EC1.5 [3]: A (EC1.5<1 μM); Emax [4]: ≥ 350%
3 | Cc1nc2ccc(-c3ccccc3C(F)(F)F)nn2c1C(=O)Nc1ccncc1F [Compound 464] |  |  | TAMRA EC1.5 [3]: A (EC1.5<1 μM); Emax [4]: ≥ 350%
4 | O=C(Nc1cnn2ccc(-c3ccccc3OC(F)(F)F)nc12)c1cnc(O)cn1 [Compound 735] | B (EC1.5 1-25 μM) | ≥ 350 | 
5 | O=C(Nc1cnc2ccc(-c3ccccc3C(F)(F)F)nn12)c1ncc(F)cc1F [Compound 440] |  |  | TAMRA EC1.5 [3]: A (EC1.5<1 μM); Emax [4]: ≥ 350%
6 | Cc1cc(NC(=O)c2cnn3ccc(-c4ccccc4C(F)(F)F)nc23)cc(C)n1 [Compound 504] |  |  | TAMRA EC1.5 [3]: A (EC1.5<1 μM); Emax [4]: ≥ 350%
7 | O=C(Nc1nc(CN2CCOCC2)cs1)c1cnc2ccc(-c3ccc(F)cc3F)nn12 [Compound 42] |  |  | TAMRA EC1.5 (μM) [5]: B (EC1.5 1-25 μM); Emax [6]: < 350%
8 | O=C(Nc1cccc(N2CCCC2)n1)c1cnc2ccc(-c3ccccc3C(F)(F)F)nn12 [Compound 22] |  |  | TAMRA EC1.5 (μM) [5]: A (EC1.5<1 μM); Emax [6]: ≥ 350%
9 | CS(=O)(=O)c1cccc(-c2ccc3ncc(C(=O)Nc4ccccn4)n3n2)c1 [Compound 12] |  |  | TAMRA EC1.5 (μM) [5]: C (EC1.5>25 μM); Emax [6]: < 350%
10 | O=C(Nc1cccnc1)c1cnc2ccc(-c3c(F)cccc3F)nn12 [Compound 169] |  |  | TAMRA EC1.5 (μM) [5]: C (EC1.5>25 μM); Emax [6]: < 350%
11 | O=C(Nc1cnn2ccc(-c3ccccc3C(F)(F)F)nc12)c1cnccn1 [Compound 253] | B (EC1.5 1-25 μM) | ≥ 350 | 
12 | O=C(Nc1cnn2ccc(-c3ccccc3C(F)(F)F)nc12)c1cccc(O)n1 [Compound 520] |  |  | TAMRA EC1.5 [3]: B (EC1.5 1-25 μM); Emax [4]: < 350%
13 | Cc1cc(C)nc(C(=O)Nc2cnn3ccc(-c4ccccc4OC(F)(F)F)nc23)c1 [Compound 750] | A (EC1.5<1 μM) | ≥ 350 | 
14 | O=C(Nc1ccccn1)c1cnc2ccc(-c3cccc(C(F)(F)F)c3)nn12 [Compound 4, N-(pyridin-2-yl)-6-(3-(trifluoromethyl)phenyl)imidazo[1,2-b]pyridazine-3-carboxamide] |  |  | TAMRA EC1.5 (μM) [5]: B (EC1.5 1-25 μM); Emax [6]: < 350%
15 | CCOc1nccc(NC(=O)c2cnc3c(C)cc(-c4ccccc4C(F)(F)F)nn23)n1 [Compound 596] |  |  | TAMRA EC1.5 [3]: A (EC1.5<1 μM); Emax [4]: ≥ 350%
16 | N#Cc1ccccc1-c1ccc2ncc(NC(=O)c3ccccn3)n2n1 [Compound 328] | A (EC1.5<1 μM) | ≥ 350 | 
17 | Cc1nc(C(=O)Nc2cnc3ccc(-c4ccccc4Cl)nn23)cs1 [Compound 292] | A (EC1.5<1 μM) | ≥ 350 | 
18 | Cc1nc(C(=O)Nc2cnc3ccc(-c4ccccc4OC(F)(F)F)nn23)c(C)s1 [Compound 318] | A (EC1.5<1 μM) | ≥ 350 | 
19 | Cc1nc2ccc(-c3ccccc3Br)nn2c1C(=O)Nc1cccnn1 [Compound 763] | A (EC1.5<1 μM) | ≥ 350 | 

More lines, main results first:

Row | TAMRA EC1.5 (μM) [1] | Emax [2] [%] | SMILES | also measured
20 | B (EC1.5 1-25 μM) | < 350 | Cc1nc2ccc(-c3ccccc3C(F)(F)F)nn2c1NC(=O)c1cccc(OCC(O)CO)n1 (stereo not drawn) [Compound 384] | 
21 | A (EC1.5<1 μM) | ≥ 350 | Cc1nc(NC(=O)c2cnc3ccc(-c4ccccc4C(F)(F)F)nn23)sc1C [Compound 237] | 
22 | A (EC1.5<1 μM) | ≥ 350 | Cc1cc2ncc(C(=O)Nc3ccnc(N4CCC4)c3)n2nc1-c1ccccc1C(F)(F)F [Compound 225] | 
23 | A (EC1.5<1 μM) | ≥ 350 | O=C(Nc1cnc2ccc(-c3ccccc3C(F)(F)F)nn12)c1cc(O)ncn1 [Compound 705] | 
24 | A (EC1.5<1 μM) | ≥ 350 | Cc1cc(-c2ccccc2C(F)(F)F)nn2c(C(=O)Nc3ccnc(N4CC5(CCS5(=O)=O)C4)n3)cnc12 [Compound 691] | 
